In patent publication US6962906B2, “Oligonucleotide analogues, methods of synthesis and methods of use” (Active Motif, priority 2000, dated 2005):
“And” between values parts separate entries of the source, which are not always exact repeats. Equal entries are not always repeated.

What was measured:
Format in all cases: binding
[1] = system: DNA oligomer 5′-TGGTCTCACGTCAGTG-3′ (SEQ ID NO: 19); assay: Melting curve analysis, mismatch discrimination in moderate salt, DNA/DNA control; conditions: for Tm, ° C. DNA/DNA: 20 millimolar Tris-HCl, pH 7.5, 150 millimolar NaCl, 10 millimolar MgCl2, oligomers 1:1; for ΔTm DNA/DNA: 150 millimolar NaCl, relative to no mismatches
Excerpt: (§1) The sequence of the […] oligomer was: Th-Gp-Gh-Tp-Ch-Tp-Ch-Ap-Ah-Gp-Th-Cp-Ah-Gp-Th-Gp-dT, where the subscript h denotes a “HypNA” monomeric unit and the subscript p denotes a “pPNA” monomeric unit. […] For performing DNA-DNA control hybridizations, a DNA oligomer with a sequence identical to that of the […] oligomer, […]) was also synthesized. To perform the melting curve analysis, the DNA oligomers and […] oligomers were mixed at a 1:1 in a volume of 400 microliters. For nucleic acid hybridization controls, DNA oligomers and complementary (or partially complementary) DNA oligomers, were mixed at a 1:1 ratio in a volume of 400 microliters. The hybridization solutions contained 20 millimolar Tris-HCl, pH 7.5, 150 millimolar NaCl, and 10 millimolar MgCl2. The mixtures of DNA oligomers or DNA oligomers with […] oligomers were then incubated at 90 degrees C. for 3 minutes and allowed to cool gradually to room temperature overnight. […] Changes in the absorbance at 260 nanometers were recorded, and a Tm was calculated for each combination of oligomers. In some cases, there was no discernible Tm, which we interpret to be the result of the inability of particular oligomer pairs to form stable complexes.

HypNA-pPNA 16-mer [2] = assay: Melting curve analysis, mismatch discrimination in high salt, PNA/DNA; conditions: for Tm, ° C. PNA/DNA: 20 millimolar Tris-HCl, pH 7.5, 500 millimolar NaCl, 10 millimolar MgCl2, oligomers 1:1; for ΔTm PNA/DNA: 500 millimolar NaCl, relative to no mismatches
Excerpt: (§2) The sequence of the […] oligomer was: Th-Gp-Gh-Tp-Ch-Tp-Ch-Ap-Ah-Gp-Th-Cp-Ah-Gp-Th-Gp-. […] For performing DNA-DNA control hybridizations, a DNA oligomer with a sequence identical to that of the […] oligomer was also synthesized. To perform the melting curve analysis, the DNA oligomers and […] oligomers were mixed at a 1:1 ratio in a volume of 400 microliters. For nucleic acid hybridization controls, DNA oligomers and complementary (or nearly complementary) DNA oligomers, were mixed at a 1:1 ratio in a volume of 400 microliters. The hybridization solutions contained 20 millimolar Tris-HCl, pH 7.5, 500 millimolar NaCl, and 10 millimolar MgCl2. The mixtures of DNA oligomers or DNA oligomers with […] oligomers were then incubated at 90 degrees C. for 3 minutes and allowed to cool gradually to room temperature overnight. […] Changes in the absorbance at 260 nanometers were recorded, and a Tm was calculated for each combination of oligomers. In some cases, there was no discernible Tm, which we interpret to be the result of the inability of particular oligomer pairs to form stable complexes.

[3] = system: DNA oligomer with a sequence identical to that of the HypNA-pPNA oligomer; assay: Melting curve analysis, mismatch discrimination in high salt, DNA/DNA control; conditions: for Tm, ° C. DNA/DNA: 20 millimolar Tris-HCl, pH 7.5, 500 millimolar NaCl, 10 millimolar MgCl2, oligomers 1:1; for ΔTm DNA/DNA: 500 millimolar NaCl, relative to no mismatches
Excerpt: as §2

HypNA-pPNA 16-mer [4] = assay: Melting curve analysis, mismatch discrimination in moderate salt, PNA/DNA; conditions: for Tm, ° C. PNA/DNA: 20 millimolar Tris-HCl, pH 7.5, 150 millimolar NaCl, 10 millimolar MgCl2, oligomers 1:1, * = Tms not reliable, complex probably unstable; for ΔTm PNA/DNA: 150 millimolar NaCl, relative to no mismatches
Excerpt: as §1

16 mer poly A RNA = assay: Melting curve analysis of poly T probes hybridized to poly A RNA; conditions: 20 mM Tris, pH 7.5, 100 mM NaCl, 10 mM MgCl2; RNA to PNA oligomer 1:2 for PNA analogues
Excerpt: (§3) In this experiment we compared hybridized complexes of DNA/DNA, DNA/PNAs, RNA/DNA and PNA/PNAs, for the stability of the complex formed. Poly A DNA oligomers, poly T DNA oligomers, poly A RNA oligomers, and poly T RNA oligomers were synthesized by solid phase synthesis. PNA oligonucleotide analogues were synthesized by solid phase synthesis using methods disclosed herein. The classical PNA Poly T oligomer consisted of a PNA having a N-(2-aminoethyl)glycine backbone. […] The 1:2 Poly T PNA consisted of: biotin-linker-(HypNA-pPNA-pPNA)5-dT. The 1:3 Poly T PNA consisted of: biotin-linker-[(HypNA-pPNA)-(pPNA-pPNA)]4-dT.
(§4) To hybridize DNA/DNA and DNA/RNA oligomers, equal amounts of oligonucleotide were mixed in 20 mM Tris, pH 7.5, 100 mM NaCl, 10 mM MgCl2, incubated at 90° C. for 3 minutes and left to cool gradually to room temperature overnight. Samples were then heated at a rate of 1° C. per minute from 20° C. to 100° C., using a spectrophotometer linked to a thermal control unit. Changes in A260 were recorded and a Tm value was calculated for each complex.
(§5) To hybridize PNA oligonucleotide analogues to DNA and RNA oligomers, the ratio of DNA (or RNA) oligomer to PNA oligomer was 1:2. This 1:2 ratio was used to promote the formation of a triplex structure, with 2 PNA oligomers binding to each DNA oligomer.
(§6) These samples were hybridized and treated in a identical manner to the DNA/DNA and DNA/RNA complexes to obtain Tm values.

16 mer poly A DNA = assay: Melting curve analysis of poly T probes hybridized to poly A DNA; conditions: 20 mM Tris, pH 7.5, 100 mM NaCl, 10 mM MgCl2; DNA to PNA oligomer 1:2 for PNA analogues
Excerpt: as §3, §4, §5, §6

[5] = system: Oligonucleotide probes labeled with ^32P (DNA probe); assay: Hybridization of support-bound polyacrylamide-oligomer co-polymers to labeled oligonucleotide probes; effect of single-base mismatches; conditions: 0.1 M NaCl, 10 mM sodium phosphate (pH 7), 5 mM EDTA, 10 mM MgCl2, 0.1% sodium dodecyl sulfate

Row | Substance | Tm, ° C. DNA/DNA [1] | ΔTm DNA/DNA [1] | Tm, ° C. PNA/DNA (HypNA-pPNA 16-mer [2]) | Tm, ° C. DNA/DNA [3] | ΔTm PNA/DNA (HypNA-pPNA 16-mer [4]) | further results
1 | 5′-CAC GGA GTT GAG ACC A -3′ (SEQ ID NO: 32) (DNA CACGGAGTTGAGACCA; DNA, backbone not given here) [Mismatch M, DNA oligomer with mismatches to the HypNA-pPNA 16-mer] | 50.2 °C and 45.2 °C | 11.5 °C and 16.4 °C |  |  |  | 
2 | 5′-CAC TGA CTT GAG ACG A -3′ (SEQ ID NO: 24) (DNA CACTGACTTGAGACGA; DNA, backbone not given here) [Mismatch D, DNA oligomer with mismatch to the HypNA-pPNA 16-mer] |  |  | 54.3 °C and 54.9 °C | 60.8 °C and 62.7 °C |  | ΔTm PNA/DNA (HypNA-pPNA 16-mer [2]): 4 °C and 3 °C
3 | 5′-CAC TGA CTT GAG ACC A -3′ (SEQ ID NO: 20) [No mismatches] | 61.7 °C and 61.6 °C |  | 59.1 °C and 58.0 °C | 63.8 °C and 64.5 °C and 64.0 °C |  | Tm, ° C. PNA/DNA (HypNA-pPNA 16-mer [4]): 57.9 °C and 58.2 °C
4 | 5′-CAC TGA GTT GGG ACC A -3′ (SEQ ID NO: 31) (DNA CACTGAGTTGGGACCA; DNA, backbone not given here) [Mismatch L, DNA oligomer with mismatches to the HypNA-pPNA 16-mer] | 47.4 °C and 50.0 °C | 14.2 °C and 11.7 °C |  |  | 24.3 °C | 
5 | 5′-CAC TGA CAT GAG ACC A -3′ (SEQ ID NO: 28) (DNA CACTGACATGAGACCA; DNA, backbone not given here) [Mismatch H, DNA oligomer with mismatch to the HypNA-pPNA 16-mer] | 50.0 °C and 53.4 °C | 11.6 °C and 8.3 °C | 41.3 °C and 43.5 °C | 55.1 °C and 53.3 °C | 5.5 °C and 6.1 °C | ΔTm PNA/DNA (HypNA-pPNA 16-mer [2]): 17 °C and 15 °C; Tm, ° C. PNA/DNA (HypNA-pPNA 16-mer [4]): 52.7 °C and 51.8 °C; ΔTm DNA/DNA [3]: 9 °C and 11 °C
6 | 5′-CAC TGA ATT GAG ACC A -3′ (SEQ ID NO: 30) (DNA CACTGAATTGAGACCA; DNA, backbone not given here) [Mismatch J, DNA oligomer with mismatch to the HypNA-pPNA 16-mer] | 52.3 °C and 52.5 °C | 9.3 °C and 9.2 °C |  |  |  | 
7 | biotin-linker-(HypNA-pPNA-pPNA)5-dT [1:2 Poly T PNA-analog] |  |  |  |  |  | Target: 16 mer poly A RNA Tm, ° C. (16 mer poly A RNA): 66.1 °C and 66.0 °C; Target: 16 mer poly A DNA Tm, ° C. (16 mer poly A DNA): 74.4 °C and 74.0 °C
8 | 20 (DNA CTGCAAAGCACACCATGA; DNA, backbone not given here) [Oligomer 20] |  |  |  |  |  | Td (degr. C.) [5]: 41 degr. C.; Tm (degr. C.) [5]: 40 degr. C.
9 | 5′-CAC TGA GTG GAG ACC A -3′ (SEQ ID NO: 22) (DNA CACTGAGTGGAGACCA; DNA, backbone not given here) [Mismatch B, DNA oligomer with mismatches to the HypNA-pPNA 16-mer] | 42.6 °C | 19 °C and 18.9 °C | No Tm |  |  | 
10 | 5′-CAC TGA CGT GAG ACC A -3′ (SEQ ID NO: 26) (DNA CACTGACGTGAGACCA; DNA, backbone not given here) [Mismatch F, DNA oligomer with mismatch to the HypNA-pPNA 16-mer] | 52.6 °C and 55.6 °C | 9 °C and 6.1 °C | No Tm | 53.9 °C and 55.3 °C | 14.5 °C and 14.2 °C | Tm, ° C. PNA/DNA (HypNA-pPNA 16-mer [4]): 43.7 °C; ΔTm DNA/DNA [3]: 10 °C and 9 °C
11 | 5′-CAC TGA CTT GAG TCC A -3′ (SEQ ID NO: 23) (DNA CACTGACTTGAGTCCA; DNA, backbone not given here) [Mismatch C, DNA oligomer with mismatch to the HypNA-pPNA 16-mer] | 51.6 °C and 53.8 °C | 10 °C and 7.9 °C |  |  | 9.9 °C and 8.7 °C | Tm, ° C. PNA/DNA (HypNA-pPNA 16-mer [4]): 48.3 °C and 49.2 °C
12 | 5′-CAC TGA CTG GAG ACC A -3′ (SEQ ID NO: 27) (DNA CACTGACTGGAGACCA; DNA, backbone not given here) [Mismatch G, DNA oligomer with mismatch to the HypNA-pPNA 16-mer] | 52.2 °C and 52.6 °C | 9.4 °C and 9.1 °C | No Tm | 56.2 °C and 56.1 °C |  | ΔTm DNA/DNA [3]: 8 °C
13 | 5′-CGG TGA CTT GAG ACC A -3′ (SEQ ID NO: 25) (DNA CGGTGACTTGAGACCA; DNA, backbone not given here) [Mismatch E, DNA oligomer with mismatches to the HypNA-pPNA 16-mer] | 52.7 °C and 55.1 °C | 8.9 °C and 6.6 °C | No Tm | 56.5 °C and 56.8 °C |  | ΔTm DNA/DNA [3]: 7 °C
14 | biotin-linker-[(HypNA-pPNA)-(pPNA-pPNA)]4-dT [1:3 Poly T PNA-analog] |  |  |  |  |  | Target: 16 mer poly A RNA Tm, ° C. (16 mer poly A RNA): 48.9 °C and 47.2 °C; Target: 16 mer poly A DNA Tm, ° C. (16 mer poly A DNA): 60.9 °C and 60.8 °C
15 | biotin-linker-(HypNA-pPNA)7-dT [1:1 Poly T PNA-analog] |  |  |  |  |  | Target: 16 mer poly A RNA Tm, ° C. (16 mer poly A RNA): 73.0 °C and 72.7 °C; Target: 16 mer poly A DNA Tm, ° C. (16 mer poly A DNA): 81.1 °C and 81.9 °C
16 | 5′-CAC TGA GTT GAG ACC A -3′ (SEQ ID NO: 21) [Mismatch A] | 51.7 °C and 51.8 °C | 9.9 °C | 41.4 °C and 41.1 °C |  | 13.1 °C and 12.5 °C | ΔTm PNA/DNA (HypNA-pPNA 16-mer [2]): 17 °C; Tm, ° C. PNA/DNA (HypNA-pPNA 16-mer [4]): 45.1 °C and 45.4 °C; ΔTm DNA/DNA [3]: 7 °C
17 | 19 (DNA CTGCAAAGGACACCATGA; DNA, backbone not given here) [Oligomer 19] |  |  |  |  |  | Td (degr. C.) [5]: 55 degr. C.; Tm (degr. C.) [5]: 54 degr. C.
18 | 5′-CAC TGA GTT CAG ACC A -3′ (SEQ ID NO: 29) (DNA CACTGAGTTCAGACCA; DNA, backbone not given here) [Mismatch K, DNA oligomer with mismatches to the HypNA-pPNA 16-mer] | 33.3 °C and 36.2 °C | 28.3 °C and 25.5 °C |  |  | 7 °C | 
